Measurements as given in patent US20120065261A1, “Creatine compositions for skin treatment” (Avicena Group, Inc., priority 2006, published 2012).

Key:
[1] = system: type I collagen levels in human dermal fibroblasts; test: Type I collagen in human dermal fibroblast conditioned medium (sandwich ELISA); type: cell-based; conditions: for levels of type I collagen: freshly prepared solutions
Procedure: Normal human dermal fibroblasts (passage 5, lot number 7F1245, Cambrix, Walkersville, Md.) were seeded in a 96-well plate in DMEM medium (high glucose) containing 5% fetal calf serum and grown to late subconfluent stage. Two sets of aqueous solutions of 10 mg/mL of creatine ascorbate, creatine monohydrate, creatine pyruvate, ascorbic acid and magnesium ascorbyl phosphate were prepared in Type I water. The first set of solutions were prepared immediately before being added to cell cultures. The second set of solutions were preincubated at pH 4.0 (±0.1) five days, then the solutions were lyophilized and the substrates were redissolved in water at 10 mg/mL prior to being added to the cell cultures. Both the freshly prepared solutions and the solutions of preincubated test materials were administered to the cells, and cell culture conditioned media was harvested 5 days after the start of the experiment and tested for type I collagen by sandwich ELISA using affinity purified antibodies, followed by streptavidin-avidin-HRP conjugate and ABTS, according to standard ELISA protocol. The colorimetric signal proportional to collagen content was measured with a microplate spectrophotometer at 405 nm. For references describing this method, see Dobek et al. “J. Dermatol. Sci.” 8:18 (1994) and Zhao et al. “Phytomedicine” 12:132 (2005).

human dermal fibroblasts = test: Mitochondrial metabolism in human dermal fibroblast cultures (MTT assay); type: cell-based; conditions: for stimulation of mitochondrial metabolism / stimulatory effect on mitochondrial metabolism / inhibition of mitochondrial metabolism: freshly prepared; for effect on mitochondrial metabolism: preincubated solutions (pH 4.0, five days); for stimulatory effect on mitochondrial metabolism: concentrations tested; for inhibition of mitochondrial metabolism: 100 μg/mL and 1000 μg/mL
Procedure: The purpose of this assay was to determine the effect creatine ascorbate, creatine monohydrate and creatine pyruvate on the mitochondrial metabolism on the entire cell culture using an MTT assay. The MTT assay measures the activity of succinate dehydrogenase, a key enzyme in the respiratory electron transport chain in mitochondria.
Two sets of aqueous solutions of 10 mg/mL of creatine ascorbate, creatine monohydrate, creatine pyruvate, ascorbic acid and magnesium ascorbyl phosphate were prepared in Type I water. The first set of solutions were prepared immediately before being added to cell cultures. The second set of solutions were preincubated at pH 4.0 (±0.1) five days, then the solutions were lyophilized and the substrates were redissolved in water at 10 mg/mL prior to being added to the cell cultures. Normal human dermal fibroblasts (passage 5, lot number 7F1254, Cambrex, Walkersville, Md.) were seeded in a 96-well plate in phenol red-free DMEM medium (high glucose) containing 2.5% fetal calf serum at 2500 cells per well and test materials, both freshly prepared solutions and preincubated solutions, were added 24 hours later. At the end of the incubation period MTT (3-(4,5-dimethylthiazol-2-yl)-2,5-diphenyltetrazolium bromide) was added to the cell cultures and incubation was pursued for an additional three hours. Culture media were then discarded, the cells were rinsed and the intracellular MTT reduction product, formazan, was solubilized in ethanol/acetic acid. The colorimetric signal proportional to the mitochondrial activity in the cell cultures was measured with a microplate spectrophotometer at 570 nm. For references describing this method, see Berridge et al. “Arch. Biochem. Biophys.” 303:474-482 (1993) and Murimaki et al. “Biochem. Pharmacol.” 44:2191-2197 (1992).

[2] = system: p53 expression in human dermal fibroblasts; test: p53 expression induced by UVB irradiation of human dermal fibroblasts (sandwich ELISA); type: cell-based; conditions: 50 μg/ml; UVB 0.15 mW/cm^2; 4 hours accumulation
Procedure: Confluent human dermal fibroblasts were trypsinized, counted and plated at 750,000 cells/well in eight 6-well plates in phenol-free DMEM medium (4 g/L glucose) supplemented with 5% serum. After three hours, creatine ascorbate, creatine monohydrate, creatine pyruvate, ascorbic acid and magnesium ascorbyl phosphate in a concentration of 50 μg/ml were added and cells were incubated overnight at 37° C. in 5% CO2 atmosphere. After 24 hours, p53 protein was induced by UVB irradiation at 0.15 mW/cm^2 for […] and was allowed to accumulate for 4 hours. The cells were then lyzed and total p53 was quantified by sandwich ELISA. The p53 values were standardized with regard to total protein values determined with Bradford reagent. For a description of this assay, see Carlisle et al. “Toxicological Sciences” 55:60 (2000).

[3] = system: Clostridium collagenase IV; test: Metalloproteinase (collagenase) activity, Enzcheck kit with quenched fluorescent gelatin; type: biochemical; conditions: after incubation of 60 minutes
Procedure: Metalloproteinase (collagenase) activity was measured with Enzcheck kit from Molecular Probes using quenched fluorescent gelatin and Clostridium collagenase IV, a generic collagenase. Creatine ascorbate, creatine monohydrate, creatine pyruvate, ascorbic acid and magnesium ascorbyl phosphate, in concentrations of 1000 μg/mL, 100 μg/mL and 10 μg/mL, were incubated in the presence of a collagenase substrate (quenched fluorescing-linked gelatin) and in the presence of the proteolytic enzyme. Phenantroline, a potent metalloproteinase inhibitor was used as a positive control. The kinetics of the release of the digested, fluorescent gelatin were measured at excitation/emission wavelengths of 485/530 nm.

[4] = system: UV-induced lipid peroxidation; test: UV-induced lipid peroxidation of lecithin dispersions (TBARS); type: biochemical; conditions: 500 μg/mL; UVB irradiation 3 hours
Procedure: Test materials were added to dispersions of lecithin (a natural phospholipid) and irradiated with UVB light (11,000 μW/cm^2 at the source). After 3 hours, trichloroacetic acid and thiobarbituric acids were added and the concentration of Thiobarbituric Acid Reactive Substance (TBARS), such as malondialdehyde, was measured spectroscopically (malonaldehyde is a breakdown product generated spontaneously from oxidized lipid) at 550 nm using an UV microplate reader. For references describing this method, see Pelle et al. “Arch. Biochem. Biophys.” 283:234-40 (1990); Wang et al. “J. Ethnopharmacol.” 82:169-175 (2002).

Mushroom tyrosinase = test: Tyrosinase activity in vitro (L-Dopa substrate); type: biochemical; conditions: for inhibition of tyrosinase activity compared to the control: 5 μg/mL
Procedure: Tyrosinase activity was measured according to the method described by Pomerantz “Biochem. Biophys. Res. Commun.” 16(2):188-194 (1964). Mushroom tyrosinase stock solution was prepared in PBS at 2000 U/mL and stored at […] in 1 mL aliquots. Final concentration was 5 U/well (25 U/mL). Creatine ascorbate, creatine monohydrate, creatine pyruvate, ascorbic acid and magnesium ascorbyl phosphate were dissolved in PBS and further dilutions were made with Type I water. L-Dopa stock solution was 20 mM. The tyrosinase substrate was prepared in PBS. The assays were performed in a 96-well microtiter plates and read at 490 nm.

[5] = Stability of aqueous solutions at pH 4.0 (HPLC); type: physicochemical; conditions: 10 mg/mL, pH 4.0, 5 days at room temperature
Procedure: Aqueous solutions of 10 mg/mL of creatine ascorbate, creatine monohydrate, creatine pyruvate, ascorbic acid and magnesium ascorbyl phosphate were prepared in Type I water and brought to pH 4.0 (±0.1) by adding acetic acid (creatine ascorbate, creatine monohydrate and magnesium ascorbyl phosphate) or sodium hydroxide (ascorbic acid and creatine pyruvate). The solutions were incubated for 5 days at room temperature and were subsequently lyophilized, redissolved within 60 minutes of analysis and analyzed by isocratic HPLC on a C18 RF column (250 mm×4.6 mm) at 1 mL/min.

[6] = highest concentration, 1000 μg/mL

Molecule | levels of type I collagen ([1]; 10 μg/mL and 100 μg/mL) | levels of type I collagen [1, 6] | effect on mitochondrial metabolism (human dermal fibroblasts) | effect on p53 expression induced by UVB irradiation [2] | inhibition of collagenase activity compared to the control [3] | stimulatory effect on mitochondrial metabolism (human dermal fibroblasts) | inhibition of mitochondrial metabolism (human dermal fibroblasts) | inhibition of tyrosinase activity compared to the control (Mushroom tyrosinase) | loss of the absorbance peak / decrease of absorption [5] | further results
CN(CC(=O)O)C(=N)N.O [creatine monohydrate] | moderately increased | better than creatine ascorbate and ascorbic acid | stimulated mitochondrial metabolism, although not to the extent of the freshly prepared creatine monohydrate | significantly inhibited | Neither creatine monohydrate nor magnesium ascorbyl phosphate showed any inhibitory activity | – | – | – | – | stimulation of mitochondrial metabolism (human dermal fibroblasts; 10 μg/mL): 0%; stimulation of mitochondrial metabolism (human dermal fibroblasts; 100 μg/mL): 15%; stimulation of mitochondrial metabolism (human dermal fibroblasts; 1000 μg/mL): 28%
O=C1O[C@H]([C@@H](O)CO)C([O-])=C1OP(=O)([O-])[O-].O=C1O[C@H]([C@@H](O)CO)C([O-])=C1OP(=O)([O-])[O-].[Mg+2].[Mg+2].[Mg+2] [magnesium ascorbyl phosphate, reference compound] | – | – | exhibited stimulation | significantly inhibited | Neither creatine monohydrate nor magnesium ascorbyl phosphate showed any inhibitory activity | greatest stimulatory activity | – | – | – | levels of type I collagen ([1]; all concentrations, 5 days): large increase; stimulation of type I collagen ([1]; results of both assays (fresh and preincubated)): strong stimulation
creatine ascorbate | significantly increased | significantly lower | superior to preincubated ascorbic acid | significantly inhibited | 11.5% | did not have a stimulatory effect | inhibited mitochondrial metabolism | 26% | – | inhibition of lipid peroxidation [4]: 21%; stimulation of type I collagen compared with reference substances ([1]; 100 μg/mL): comparable to that of magnesium ascorbyl phosphate and better than ascorbic acid; stimulation of type I collagen levels above the non-treated control (water) ([1]; dose-dependent, conclusion of both assays (fresh and preincubated)): about 50%; tyrosinase inhibitory activity compared with reference substances (Mushroom tyrosinase): lower than the activity of ascorbic acid and was similar to the activity of magnesium ascorbyl phosphate; inhibitory effect on the tyrosinase activity (Mushroom tyrosinase; 500 μg/mL and 50 μg/mL): significant inhibitory effect; degradation in aqueous solution [5]: minor to no degradation
creatine pyruvate | moderately increased | better than creatine ascorbate and ascorbic acid | not to be inhibitory | significantly inhibited | 27% | – | 17% | no inhibition | 42% | inhibition of tyrosinase activity (Mushroom tyrosinase; 50 μg/mL): 10%; inhibition of tyrosinase activity (Mushroom tyrosinase; 500 μg/mL): 100%
O=C1O[C@H]([C@@H](O)CO)C(O)=C1O [ascorbic acid, reference compound] | – | – | – | no effect | 39% | did not have a stimulatory effect | inhibited mitochondrial metabolism | – | 28% | inhibitory effect on mitochondrial metabolism (human dermal fibroblasts; preincubated, concentration not given): 24%
